Active and inactive are the calls of the source. The calls are words filed in the database; no cut-off is given here. Where a SMILES comes first, the peptide text is derived from it.
Legend:
[1] = Hemolytic activity against human erythrocytes assessed as amount of hemoglobin released from lysed cells up to 150 uM relative to control; assay type: ADME, cell-based, Erythrocyte; conditions: read-out: Activity
[2] = test system: Cavia porcellus; test: Prophylactic protection against UVB-induced pigmentation in Dunkin-Hartley guinea pig pigmentation model assessed as increase in whitening administered topically 6 hrs before UV radiation every day for 2 weeks; assay type: functional, organism-based
[3] = target: T1, Tyrosinase (Mus musculus) (UniProt P11344); test: Inhibition of TYR activity in mouse B16 cells assessed as reduction in melanin levels at 20 uM after 24 hrs by spectrophotometric analysis relative to control; assay type: cell-based
T1 sequence (whole entry): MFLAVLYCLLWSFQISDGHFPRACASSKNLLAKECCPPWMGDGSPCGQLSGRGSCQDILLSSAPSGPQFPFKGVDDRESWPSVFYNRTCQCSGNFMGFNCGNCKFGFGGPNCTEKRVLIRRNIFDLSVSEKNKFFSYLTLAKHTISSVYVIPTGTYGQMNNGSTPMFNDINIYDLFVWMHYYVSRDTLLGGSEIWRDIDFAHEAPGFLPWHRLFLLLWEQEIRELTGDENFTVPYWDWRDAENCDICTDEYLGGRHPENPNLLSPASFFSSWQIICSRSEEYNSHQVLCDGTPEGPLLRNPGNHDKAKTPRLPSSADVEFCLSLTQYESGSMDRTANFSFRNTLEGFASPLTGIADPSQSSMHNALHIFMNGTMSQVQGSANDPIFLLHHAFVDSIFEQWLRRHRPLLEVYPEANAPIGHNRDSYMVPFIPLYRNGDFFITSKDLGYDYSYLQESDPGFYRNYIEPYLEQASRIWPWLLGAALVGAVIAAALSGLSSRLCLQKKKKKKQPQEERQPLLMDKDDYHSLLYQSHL

[4] = test system: LAD2; test: (§1) Proinflammatory activity in human LAD2 cells assessed as increase in mast-cell degranulation by measuring beta-hexosaminidase release at 2 mM preincubated for 30 mins followed 4-nitrophenyl-N-acetyl-beta-D-glucosaminide substrate addition and measured after 90 mins by fluorescence-based microplate reader analysis relative to control; assay type: ADME; conditions: lad2, 1.5 h, 2000 µM
[5] = species: Mus musculus; test: Effect on JNK phosphorylation in mouse B16 cells up to 80 uM after 72 hrs by Western blot analysis; assay type: cell-based
[6] = Antioxidant activity assessed as DPPH free radical scavenging activity at 80 uM after 30 mins relative to control; assay type: functional
[7] = Reducing power of the compound assessed as reducing Fe3+ power at 80 uM using K3Fe(CN)6 in pH 6.6 phosphate buffer relative to control
[8] = target: T2, Tyrosinase (Agaricus bisporus, UniProt O42713); test: Inhibition of mushroom tyrosinase using L-dopa as substrate assessed as reduction in dopachrome production after 20 mins by spectrophotometry
T2 sequence (O42713 whole entry): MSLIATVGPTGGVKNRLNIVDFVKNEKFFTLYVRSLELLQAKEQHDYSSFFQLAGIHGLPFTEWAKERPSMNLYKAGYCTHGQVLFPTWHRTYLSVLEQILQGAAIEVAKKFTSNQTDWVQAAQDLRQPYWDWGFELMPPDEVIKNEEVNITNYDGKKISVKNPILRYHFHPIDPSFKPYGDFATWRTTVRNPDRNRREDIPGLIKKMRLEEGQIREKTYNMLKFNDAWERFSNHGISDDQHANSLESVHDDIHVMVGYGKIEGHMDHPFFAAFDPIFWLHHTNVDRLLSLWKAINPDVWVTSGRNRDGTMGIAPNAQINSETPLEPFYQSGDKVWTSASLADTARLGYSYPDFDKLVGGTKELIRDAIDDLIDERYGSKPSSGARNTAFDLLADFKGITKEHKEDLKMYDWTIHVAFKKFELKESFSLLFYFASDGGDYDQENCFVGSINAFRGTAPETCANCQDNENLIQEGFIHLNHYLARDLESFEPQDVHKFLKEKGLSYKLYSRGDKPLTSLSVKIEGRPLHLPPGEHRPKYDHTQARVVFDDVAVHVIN

[9] = Antioxidant activity assessed as ABTS radical scavenging activity at 80 uM after 10 mins relative to control; assay type: functional
[10] = test system: LAD2; test: as §1, with “at 0.25” for “at 2”; assay type: ADME; conditions: lad2, 1.5 h, 250 µM
[11] = Drug uptake in skin basal layer of brown guinea pig at 2 mM dosed topically after 2 to 4 hrs using FITC-labelled compound by H and E staining-based fluorescence microscopy; assay type: ADME, organism-based, Cavia porcellus; conditions: in vivo, topical_or_ocular, 2000 µM
[12] = test system: B16; test: Downregulation of TYR protein expression in mouse B16 cells after 72 hrs by Western blot analysis; assay type: functional, cell-based
[13] = Toxicity in Dunkin-Hartley guinea pig model of UVB-induced pigmentation assessed as abnormal morphological changes in epidermis at 1 mM to 2 mM administered topically 6 hrs before UV radiation every day for 2 weeks by Fontana-Masson-staining based assay; parameters: species or system Cavia porcellus; conditions: in vivo, topical_or_ocular, 1000 µM

Question: With `CC(C)[C@H](NC(=O)[C@H](CCCNC(=N)N)NC(=O)[C@H](Cc1ccccc1)NC(=O)[C@H](CS)NC(=O)[C@H](CCCNC(=N)N)NC(=O)[C@@H](N)[C@@H](C)O)C(=O)N[C@@H](CS)C(=O)N[C@@H](CO)C(=O)O` (H-TRCFRVCS-OH) as the molecule, how does the hemolysis [1] read?
Answer: 1%

Question: What about the Activity [2] of the same molecule?
Answer: Dose-dependent effect

Question: What about the inhibition [3] of the same molecule?
Answer: Active

Question: What about the Activity [4] of the same molecule?
Answer: 10.51%

Question: What about the Activity [5] of the same molecule?
Answer: inactive

Question: What about the Activity [6] of the same molecule?
Answer: 97%

Question: And the Activity [7]?
Answer: 0.31

Question: And the IC50 [8]?
Answer: 53 µM

Question: And the Activity [9]?
Answer: 63%

Question: What about the Activity [10] of the same molecule?
Answer: 7.19%

Question: And the Drug uptake [11]?
Answer: Not Active

Question: And the inhibition [12]?
Answer: Active

Question: What about the Activity [13] of the same molecule?
Answer: Non-Toxic

From ChEMBL document CHEMBL4325834, “De Novo Molecular Design of a Novel Octapeptide That Inhibits In Vivo Melanogenesis and Has Great Transdermal Ability” (J Med Chem, 2018)
